Results: publication PMC10452181, “Synthesis and Biological Evaluation of Cyclobutane-Based β3 Integrin Antagonists: A Novel Approach to Targeting Integrins for Cancer Therapy” (Cancers, 2023)

Assays:
αvβ3 = target: T1, αvβ3 (Homo sapiens, UniProt P05106+P06756); assay: Sk-Mel-2 cell adhesion to immobilised fibronectin (cell-binding assay, MTT readout); format: cell-based; conditions: Sk-Mel-2 adhesion to Fn, mean ± SD
T1 construct: endogenous in cells; host or cells: SK-Mel-2 melanoma cells
Procedure: First, 96-well plates (Corning, VWR) were coated overnight at 4 °C with 0.5 μg/well fibronectin (Sigma). SK-Mel-2 cells were trypsinised, washed and resuspended in RPMI medium only at 10^5 cells/mL. Cells (100 µL/well) were treated with compound (DMSO final concentration 0.1%) at the indicated concentration for 4 hrs on a rotary shaker. Plates were washed (3 × PBS) and blocked with PBS/5% BSA for 2 hrs at 37 °C prior to adding the cells. Cells were incubated on the plates at 37 °C in a humidified chamber with 5% CO2 for 1 hr. The plates were washed 3× with PBS and a 200 µL/well RPMI medium containing 10% FCS added. The plates were incubated overnight at 37 °C as above. Finally, 0.5 mg/mL of 3-(4,5-dimethythiazol-2-yl)-2,5-diphenyl tetrazolium bromide (MTT) was added to each well and the plates incubated for a further 4 h. The medium was removed, and the insoluble formazan dissolved in 150 µL of DMSO. Absorbance was measured at 540 nm using a Thermo Multiskan EX (Thermofisher, UK)and Ascent Software (v2.6). Total binding was determined based on controls lacking any compounds (100% binding) in fibronectin-coated wells and uncoated wells blocked with BSA (0% binding) and corrected for background (no cells, fibronectin-coated).
As an initial test of anti-β3 activity, the ability of compounds to inhibit the adhesion of melanoma cells expressing high levels of αvβ3 and low levels of other RGD-binding integrins such as αvβ5 and α5β1 to immobilised fibronectin was evaluated.
Cells were seeded onto precoated plates in the presence or absence of putative antagonists and the number of adherent cells quantified colorimetrically.

Sk-Mel-2 = assay: in vitro; format: cell-based, human
Procedure: Before use in cell-based assays of integrin function, the effect of compounds on cell proliferation was tested using the MTT assay to avoid adhesion results being confounded by cell death (Supplementary Table S1). The effect of compounds on cell adhesion was then initially tested at a single, nontoxic concentration to identify active antagonists for further characterisation; those displaying a promising activity in the adhesion assay were tested at a wider range of concentrations to determine the IC50 (Table 2). […] Nevertheless, it is a cost-effective initial screening method. page 4: Table S1. Cytotoxicity of compounds on the cell lines used in the functional assays (measured by MTT assay). Cells (2000 cells/well for Sk-Mel-2; 1 x 10^4 cells/mL for M14) were incubated for 96 hours at 37 ° C in a total volume of 200 μL/well (180 μL medium + 20 μ L test compound solution). After 96 hours, the medium was replaced by fresh medium containing 0.5 mg/ml (end conc.) MTT per well, incubated for 4 h then the plate processed and read as described in the main text. […] ICT9053 41 naphthyridine 1 NHSO2Mes H Ester 52.6 ± 0.6 72.7 ± 9.8 ICT9065 42 naphthyridine 1 H H Ester >100 - ICT9079 43 naphthyridine 0 NHSO2Mes H Ester ~100 - ICT9061 44 naphthyridineT 1 NHSO2Mes H Ester 46.8 ± 10.7 - […] Ester 65.4 ± 11.1 >100 […] Ester 9.6 ± 5.7 >100 […] Ester >100 - […] Ester 54.6 ± 11.0 - […] Ester >5 3.3 ± 0.8 […] ICT9028 51 pyrimidine 2 NHSO2Ph H Acid >100 - ICT9031 52 pyrimidineT 1 NHSO2Mes H Acid >100 - ICT9090 53 pyrimidineT 2 NHSO2Mes H Acid >50 - ICT9029 54 pyrimidineT 2 NHSO2Ph H Acid >100 - ICT9063 55 naphthyridine 1 NHSO2Mes H Acid 61.7 ± 2.8 - […] Acid 45.5 ± 7.9 >100 […] 42.5 ± 1.8 >50 RGDS >50 - T trans configuration of cyclobutane sidechains.

αIIbβ3 = target: T2, αIIbβ3 (Homo sapiens, UniProt P05106+P08514); assay: αIIbβ3/fibrinogen purified protein binding ELISA; conditions: mean ± SD
T2 construct: purchased Sigma
Procedure: ELISA assays were performed as previously described with minor modifications. Briefly, serial dilutions of compounds were prepared in dimethyl sulfoxide (DMSO). C8 Maxi Immuno modules (Fisher Scientific) were incubated overnight at 4 °C with 0.5 μg/well of fibrinogen (Sigma) in sterile phosphate buffered saline (PBS, 0.2 g/L KCl, 8.0 g/L NaCl, 0.2 KH2PO4, 1.15 g/L Na2HPO4, pH 7.4). All subsequent wash steps were performed using 25 mM Tris, pH 7.6, 150 mM NaCl, 1 mM MnCl2, 1 mg/mL BSA, and binding/inhibition was carried out in 25 mM Tris, pH 7.6, 150 mM NaCl, 1 mM MnCl2, 1 mM MgCl2, 1 mM CaCl2, 1 mg/mL BSA.
Wells were washed and blocked with a blocking solution (PBS, 0.1% Tween 20, 3% BSA) for 1 h at 37 °C. Compounds were added to the wells at indicated concentrations (final 0.5% DMSO) in the presence of 0.5 µg/well αIIbβ3 (Sigma) and incubated at room temp for 1 h. After 3 washes, primary anti-αIIb (1:200 dilution, Santa Cruz Biotech, Heidelberg, Germany) and antigoat–HRP (1:500 dilution, Dako, Agilent, Santa Clara, CA, USA) were added at room temp for 1 h. The wells were washed and incubated with 0.1 mg/mL tetra-methylbenzidine (Sigma) for 25 min and the reaction was stopped with 1N H2SO4 (100 μL/well). The absorbance was measured at 450 nm using a Multiscan Spectrum reader (Thermo Scientific, Thermofisher, UK) and SkanIT RE (v2.4.4.5) software. Results were plotted as percent binding vs. log concentration and IC50 values determined.

T2 sequence (P08514 32-887 limits assumed): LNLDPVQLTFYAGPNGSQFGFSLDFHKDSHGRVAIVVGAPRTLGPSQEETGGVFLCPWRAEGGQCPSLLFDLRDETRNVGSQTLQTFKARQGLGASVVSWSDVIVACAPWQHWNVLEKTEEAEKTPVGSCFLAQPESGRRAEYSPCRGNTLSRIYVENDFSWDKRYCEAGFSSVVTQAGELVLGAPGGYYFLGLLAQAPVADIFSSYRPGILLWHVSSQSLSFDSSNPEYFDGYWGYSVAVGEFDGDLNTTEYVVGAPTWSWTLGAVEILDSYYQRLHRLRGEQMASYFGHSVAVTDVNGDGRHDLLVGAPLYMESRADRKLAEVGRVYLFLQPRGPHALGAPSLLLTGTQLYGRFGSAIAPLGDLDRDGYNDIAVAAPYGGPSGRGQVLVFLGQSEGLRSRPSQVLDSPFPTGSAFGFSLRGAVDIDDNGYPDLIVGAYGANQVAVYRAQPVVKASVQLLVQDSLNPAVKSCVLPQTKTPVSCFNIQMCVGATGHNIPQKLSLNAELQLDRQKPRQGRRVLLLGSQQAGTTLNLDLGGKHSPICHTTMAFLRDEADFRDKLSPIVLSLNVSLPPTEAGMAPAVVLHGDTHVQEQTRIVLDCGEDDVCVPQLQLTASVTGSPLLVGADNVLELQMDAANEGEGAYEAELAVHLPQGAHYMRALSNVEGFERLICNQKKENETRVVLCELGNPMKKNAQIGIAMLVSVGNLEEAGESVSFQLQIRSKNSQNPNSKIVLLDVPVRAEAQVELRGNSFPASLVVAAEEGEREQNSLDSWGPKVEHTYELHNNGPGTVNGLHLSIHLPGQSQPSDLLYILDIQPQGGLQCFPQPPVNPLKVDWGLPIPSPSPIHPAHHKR
T2 sequence (P08514 891-1039 partner limits assumed): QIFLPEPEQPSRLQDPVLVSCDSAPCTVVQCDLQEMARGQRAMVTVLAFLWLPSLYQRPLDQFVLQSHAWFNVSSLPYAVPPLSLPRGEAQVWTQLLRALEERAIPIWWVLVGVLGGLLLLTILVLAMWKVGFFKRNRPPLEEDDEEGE
T2 sequence (P05106 27-788): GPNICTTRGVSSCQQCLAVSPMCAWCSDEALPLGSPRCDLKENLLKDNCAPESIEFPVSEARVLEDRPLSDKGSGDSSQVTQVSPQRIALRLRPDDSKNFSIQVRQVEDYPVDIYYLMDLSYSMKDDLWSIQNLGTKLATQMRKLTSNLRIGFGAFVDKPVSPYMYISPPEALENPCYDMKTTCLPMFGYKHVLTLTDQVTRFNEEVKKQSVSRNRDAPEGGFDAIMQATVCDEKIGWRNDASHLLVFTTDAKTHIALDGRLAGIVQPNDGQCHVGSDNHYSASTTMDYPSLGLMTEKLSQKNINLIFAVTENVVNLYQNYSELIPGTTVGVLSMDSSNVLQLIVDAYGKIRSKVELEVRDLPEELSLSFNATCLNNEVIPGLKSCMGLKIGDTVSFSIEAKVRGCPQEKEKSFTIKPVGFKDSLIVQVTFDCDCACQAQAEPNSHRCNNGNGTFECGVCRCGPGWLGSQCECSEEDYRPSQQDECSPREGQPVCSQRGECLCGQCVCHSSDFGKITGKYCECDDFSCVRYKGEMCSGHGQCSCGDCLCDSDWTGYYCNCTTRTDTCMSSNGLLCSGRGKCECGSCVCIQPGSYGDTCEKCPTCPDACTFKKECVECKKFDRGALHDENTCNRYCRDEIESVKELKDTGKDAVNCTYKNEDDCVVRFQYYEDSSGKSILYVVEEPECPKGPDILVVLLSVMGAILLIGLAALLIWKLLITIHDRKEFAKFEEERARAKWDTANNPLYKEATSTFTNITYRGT
T1 sequence (P06756 31-889 limits assumed): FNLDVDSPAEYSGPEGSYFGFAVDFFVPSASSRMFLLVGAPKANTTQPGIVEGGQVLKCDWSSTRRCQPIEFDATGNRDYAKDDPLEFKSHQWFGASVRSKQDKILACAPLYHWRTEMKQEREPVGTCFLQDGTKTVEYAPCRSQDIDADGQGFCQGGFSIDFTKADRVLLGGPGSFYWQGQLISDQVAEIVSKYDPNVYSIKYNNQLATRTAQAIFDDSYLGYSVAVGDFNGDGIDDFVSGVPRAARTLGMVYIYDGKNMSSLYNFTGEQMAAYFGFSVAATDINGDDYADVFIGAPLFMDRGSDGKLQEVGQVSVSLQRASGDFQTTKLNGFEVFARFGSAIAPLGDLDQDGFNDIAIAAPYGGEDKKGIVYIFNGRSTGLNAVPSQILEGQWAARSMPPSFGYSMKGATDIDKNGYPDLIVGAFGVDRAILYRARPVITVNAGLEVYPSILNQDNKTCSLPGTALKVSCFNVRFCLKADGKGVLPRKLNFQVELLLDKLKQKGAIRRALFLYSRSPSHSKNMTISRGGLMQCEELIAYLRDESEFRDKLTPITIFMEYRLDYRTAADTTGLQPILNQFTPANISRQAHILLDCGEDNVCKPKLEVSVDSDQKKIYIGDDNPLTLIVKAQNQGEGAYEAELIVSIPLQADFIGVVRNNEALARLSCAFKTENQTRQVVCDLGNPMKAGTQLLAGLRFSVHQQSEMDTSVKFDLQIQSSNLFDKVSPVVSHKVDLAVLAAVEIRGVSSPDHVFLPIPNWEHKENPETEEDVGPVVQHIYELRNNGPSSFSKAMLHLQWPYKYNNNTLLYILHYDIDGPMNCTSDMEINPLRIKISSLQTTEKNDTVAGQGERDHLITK
T1 sequence (P06756 891-1048 partner limits assumed): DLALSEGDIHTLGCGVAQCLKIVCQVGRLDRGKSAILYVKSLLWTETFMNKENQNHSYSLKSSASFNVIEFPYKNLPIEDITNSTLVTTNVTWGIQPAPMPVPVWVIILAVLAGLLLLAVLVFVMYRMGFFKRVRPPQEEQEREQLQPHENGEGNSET
T1 sequence (P05106 27-788): as the sequence (P05106 27-788) above

Which “Adhesion % Inhibition @ 50 μM” value (αvβ3) does the source give for `COC(=O)CCNC(=O)[C@H]1C[C@@H](CCc2ccc3c(n2)NCCC3)C1` [ICT9066 47, Methyl 3-((1r,3s)-3-(2-(5,6,7,8-tetrahydro-1,8-naphthyridin-2-yl)ethyl)cyclobutanecarboxamido)propanoate] here?
The value was 22.4 ± 29.3%.

What about the IC50 (Sk-Mel-2) of the same molecule?
The IC50 was over 100 µM.

For `O=C(O)[C@H](CNC(=O)[C@H]1C[C@H](CCCNc2ncccn2)C1)NS(=O)(=O)c1ccccc1` [ICT9028 51, (S)-2-(phenylsulfonamido)-3-((1r,3r)-3-(3-(pyrimidin-2-ylamino)propyl)cyclobutanecarboxamido)propanoic acid], which “Adhesion % Inhibition @ 50 μM” value (αvβ3) is on record?
The value was 31.8 ± 10.0%.

And the IC50 (αvβ3)?
Its IC50 is over 50 µM.

And the IC50 (Sk-Mel-2)?
The IC50 was over 100 µM.

And the “% Inhibition (αIIbβ3/Fg) @ 50 μM” value (αIIbβ3)?
The value was 93.6 ± 2.2%.

And the IC50 (αIIbβ3; read-out: IC50 (αIIbβ3/Fg))?
The IC50 was 7.8 ± 2.8 µM.

What does the source list for `COC(=O)[C@@H](CNC(=O)[C@H]1C[C@@H](CCCNc2ncccn2)C1)NS(=O)(=O)c1ccccc1` [ICT9021 25, (R)-methyl 2-(phenylsulfonamido)-3-((1r,3s)-3-(3-(pyrimidin-2-ylamino)propyl)cyclobutanecarboxamido)propanoate]?
Adhesion % Inhibition @ 50 μM (αvβ3): 22.2 ± 22.3%; IC50 (Sk-Mel-2): > 100 µM

Which “Adhesion % Inhibition @ 50 μM” value (αvβ3) does the source give for `COC(=O)[C@H](CNC(=O)C1CC(CCCNc2ncccn2)C1)NS(=O)(=O)c1ccccc1` (stereo partly drawn) [ICT9023 23, (S)-methyl 2-(phenylsulfonamido)-3-((1r,3r)-3-(3-(pyrimidin-2-ylamino)propyl)cyclobutanecarboxamido)propanoate] here?
Its value is 7.4 ± 15.1%.

And the IC50 (Sk-Mel-2)?
The IC50 was over 100 µM.

What about the “% Inhibition (αIIbβ3/Fg) @ 50 μM” value (αIIbβ3) of the same molecule?
The value was 10.9 ± 15.4%.

What does the source list for `COC(=O)[C@H](CNC(=O)C1CC(CCc2ccc3cccnc3n2)C1)NS(=O)(=O)c1ccccc1` (stereo partly drawn) [ICT9054 40, (S)-methyl 3-((1r,3r)-3-(2-(1,8-naphthyridin-2-yl)ethyl)cyclobutanecarboxamido)-2-(phenylsulfonamido)propanoate]?
Adhesion % Inhibition @ 5 μM (αvβ3): 48.7 ± 30.6%; IC50 (Sk-Mel-2): 65.2 ± 1.3 µM

Which IC50 (Sk-Mel-2) does the source give for `COC(=O)[C@H](CNC(=O)[C@H]1C[C@@H](CCCNc2ncccn2)C1)NS(=O)(=O)c1ccccc1` [ICT9026 29, (S)-methyl 2-(phenylsulfonamido)-3-((1s,3s)-3-(3-(pyrimidin-2-ylamino)propyl)cyclobutanecarboxamido)propanoate] here?
The IC50 was over 100 µM.

What about the “% Inhibition (αIIbβ3/Fg) @ 50 μM” value (αIIbβ3) of the same molecule?
The value was 31.6 ± 10.7%.

Which results are given for `COC(=O)[C@H](CNC(=O)C1CC(Cc2ccc3cccnc3n2)C1)NS(=O)(=O)c1c(C)cc(C)cc1C` (stereo partly drawn) [ICT9079 43, (S)-methyl 3-((1s,3r)-3-((1,8-naphthyridin-2-yl)methyl)cyclobutanecarboxamido)-2-(2,4,6-trimethylphenylsulfonamido)propanoate]?
Adhesion % Inhibition @ 5 μM (αvβ3): 33.5 ± 26.2%; IC50 (Sk-Mel-2): ~100 µM

For `COC(=O)[C@H](CNC(=O)C1CC(Cc2ccc3c(n2)NCCC3)C1)NS(=O)(=O)c1c(C)cc(C)cc1C` (stereo partly drawn) [ICT9080 48, (S)-methyl 3-((1s,3r)-3-((5,6,7,8-tetrahydro-1,8-naphthyridin-2-yl)methyl)cyclobutanecarboxamido)-2-(2,4,6-trimethylphenylsulfonamido)propanoate], which “Adhesion % Inhibition @ 5 μM” value (αvβ3) is on record?
Its value is 61.5 ± 11.1%.

And the IC50 (Sk-Mel-2)?
Its IC50 is 54.6 ± 11 µM.

How did the IC50 (Sk-Mel-2) turn out when `COC(=O)CCNC(=O)C1CC(CCc2ccc3cccnc3n2)C1` (centres unmarked) [ICT9065 42, Methyl 3-((1r,3s)-3-(2-(1,8-naphthyridin-2-yl)ethyl)cyclobutanecarboxamido)propanoate] was run?
Its IC50 is over 100 µM.

With `COC(=O)[C@H](CNC(=O)C1CC(CCc2ccc3cccnc3n2)C1)NS(=O)(=O)c1c(C)cc(C)cc1C` (stereo partly drawn) [ICT9061 44, (S)-methyl 3-((1s,3s)-3-(2-(1,8-naphthyridin-2-yl)ethyl)cyclobutanecarboxamido)-2-(2,4,6-trimethylphenylsulfonamido)propanoate] as the molecule, how does the “Adhesion % Inhibition @ 5 μM” value (αvβ3) read?
The value was 32.4 ± 16.1%.

And the IC50 (Sk-Mel-2)?
Its IC50 is 46.8 ± 10.7 µM.
